Among the data in paper PMC12224939, “Trypstatin as a Novel TMPRSS2 Inhibitor with Broad‐Spectrum Efficacy against Corona and Influenza Viruses” (Advanced Science, 2025) are IC50 values, retold here.

Where a name gives a salt, the structure may show the parent alone. Read-outs that look alike come from different tables or passages of the source.

The subject of test [1] is lentiviral pseudoparticles harboring the MERS-CoV spike. Kind of test: microbe, parasite or virus in culture. Particulars: Middle East respiratory syndrome-related coronavirus.
In test [2] the test system is lentiviral pseudoparticles harboring the SARS-CoV-1 spike. In words: microbe, parasite or virus in culture. Particulars: Severe acute respiratory syndrome coronavirus, Caco-2, read-out: anti-viral IC50 (±SEM), SARS-CoV-1 pp.

The term IC50 denotes the point on the concentration scale where inhibition reaches its midpoint. Consider `CN(C)C(=O)COC(=O)Cc1ccc(OC(=O)c2ccc(NC(=N)N)cc2)cc1` [Camostat mesylate], for which the IC50 amounted to 50 nM in test [1] (Caco-2, 48 h, read-out: IC50, MERS-CoV spike pseudoparticles); 49.9 ± 19 nM in test [1] (Caco-2, read-out: anti-viral IC50 (±SEM), MERS-CoV pp); 71.1 ± 8 nM in test [2].
